Data from publication PMC11904993, “Humanized Candida and NanoBiT Assays Expedite Discovery of Bdf1 Bromodomain Inhibitors With Antifungal Potential” (Advanced Science, 2025).
Several values for one entry are separate records, joined by “and”; a condition that tells them apart may be missing. Equal values may be shown once. Read-outs that look alike come from different tables or passages of the source.

Legend:
[1] = system: C. glabrata strains expressing WT and mutant Bdf1; experiment: Growth inhibition in liquid media, C. glabrata lab strains; details: for EC50: Nakaseomyces glabratus, single experiments Exp1-3; for OD at 600 nm: Figure S4B
Method: (§1) Growth on Liquid Media with C. glabrata Lab Strains: Cells were grown at 30 °C in SC+M+C‐U medium (SC medium with 5 mM methionine, 0.25 mM cysteine, without uracil) to an OD600 of 0.5–0.8. […] Plates were incubated at 30 °C and OD600 was measured using a Multiskan FC Microplate Photometer (Thermo Fisher).

CgBdf1 BD1 [2] = target: CgBdf1 BD1 (Candida glabrata, UniProt Q6FWV7); experiment: HTRF assay, inhibition of H4ac4 peptide binding; set-up: species or system C. glabrata; details: single experiments Exp1-3; for pIC50 CgBD1: Fig 1D/2A original data
CgBdf1 BD2 [3] = target: CgBdf1 BD2 (Candida glabrata, UniProt Q6FWV7); experiment: biochemical; format: binding, C. glabrata
CgBdf1 BD1 [4] = experiment: Histone peptide array assay; details: peptide array signal; for Raw data, WT / Normalized (0 to 100%), WT: CgBdf1 BD1 WT; for Normalized (0 to 100%), WT / Normalized (0 to 100%), YF mutant: mean of the two raw values; for Raw data, YF mutant / Normalized (0 to 100%), YF mutant: CgBdf1 BD1 YF mutant
Method: (§2) The array was prepared as described in the manufacturer's instructions. […] The array was then washed three times with binding buffer. Anti‐GST antibody (GE Healthcare) was used for the detection of GST‐tagged bromodomains.

CgBdf1 BD2 [5] = experiment: Histone peptide array assay; details: peptide array signal; for Raw data, WT / Normalized (0 to 100%), WT: CgBdf1 BD2 WT; for Normalized (0 to 100%), WT / Normalized (0 to 100%), YF mutant: mean of the two raw values; for Raw data, YF mutant / Normalized (0 to 100%), YF mutant: CgBdf1 BD2 YF mutant
Method: as §2

[6] = system: C. glabrata expressing humanized Bdf1 (Brd4 BDs); experiment: Growth inhibition in liquid media, humanized C. glabrata strains; details: Fig 3E, 50 µM, Exp 1-3
Method: as §1

CgBdf1 BD2 (Candida glabrata, UniProt Q6FWV7), sequence (Q6FWV7 entry or part of it): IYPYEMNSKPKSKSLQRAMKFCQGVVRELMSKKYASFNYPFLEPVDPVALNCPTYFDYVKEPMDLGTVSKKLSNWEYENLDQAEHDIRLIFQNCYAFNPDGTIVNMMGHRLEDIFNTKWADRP
CgBdf1 BD1 (Candida glabrata, UniProt Q6FWV7), sequence (Q6FWV7 entry or part of it): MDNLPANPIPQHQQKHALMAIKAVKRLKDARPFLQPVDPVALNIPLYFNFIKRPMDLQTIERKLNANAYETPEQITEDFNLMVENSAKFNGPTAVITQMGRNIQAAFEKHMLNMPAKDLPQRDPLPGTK

| Molecule | Raw data, WT (CgBdf1 BD1 [4]; first replicate column) | Normalized (0 to 100%), WT (CgBdf1 BD1 [4]) [%] | Raw data, WT (CgBdf1 BD1 [4]; second replicate column) | Raw data, YF mutant (CgBdf1 BD1 [4]; first replicate column) | Normalized (0 to 100%), YF mutant (CgBdf1 BD1 [4]) [%] | Raw data, YF mutant (CgBdf1 BD1 [4]; second replicate column) | Raw data, WT (CgBdf1 BD2 [5]; first replicate column) | Normalized (0 to 100%), WT (CgBdf1 BD2 [5]) [%] | Raw data, WT (CgBdf1 BD2 [5]; second replicate column) | Raw data, YF mutant (CgBdf1 BD2 [5]; first replicate column) | Normalized (0 to 100%), YF mutant (CgBdf1 BD2 [5]) [%] | Raw data, YF mutant (CgBdf1 BD2 [5]; second replicate column) | further results |
| --- | --- | --- | --- | --- | --- | --- | --- | --- | --- | --- | --- | --- | --- |
| Cc1ccc(-c2nnc(C)c(NCc3ccccc3)n2)cc1 [Compound 24m, N‐benzyl‐6‐methyl‐3‐(p‐tolyl)‐1,2,4‐triazin‐5‐amine] |  |  |  |  |  |  |  |  |  |  |  |  | EC50 ([1]; read-out: pEC50 (WT BDF1), Fig 2D (converted), WT C. glabrata): > 251 µM; EC50 ([1]; read-out: pEC50 growth inhibition, Fig 2C (converted), strain BD1 Y-F): > 251 µM; EC50 ([1]; read-out: pEC50 growth inhibition, Fig 2C (converted), strain BD2 Y-F): > 251 µM; IC50 (CgBdf1 BD1 [2]; Fig 2C original data, analogs of 24, read-out: pIC50 CgBD1 (converted)): > 20 µM; IC50 (CgBdf1 BD2 [3]; Fig 2C original data, analogs of 24, single experiments Exp1-3, read-out: pIC50 CgBD2 (converted)): > 20 µM |
| CCOC(=N)c1ccc(C)cc1 [Compound 65] | 0.0009452 | 1.47 | 0.02836 | 0.001851 | 0.247 | 0.003085 | 0.004991 | 0.421 | 0.003431 | 0.007362 | 0.383 | 0.0003067 |  |
| Cc1ccc(C(=N)NN)cc1 [Compound 66] | 0.007561 | 2.32 | 0.03875 | 0.003085 | 0.308 | 0.003085 | 0.007798 | 0.717 | 0.00655 | 0.005521 | 0.276 | 0 |  |
| Cc1ccc(-c2nc(=O)c(C)n[nH]2)cc1 [Compound 67] | 0.09956 | 16 | 0.2253 | 0.002159 | 0.308 | 0.00401 | 0.06082 | 11 | 0.1541 | 0.007975 | 0.613 | 0.004294 |  |
| Cc1ccc(-c2nnc(C)c(Cl)n2)cc1 [Compound 68] | 0.003466 | 2.19 | 0.04033 | 0.003085 | 0.355 | 0.00401 | 0.004679 | 0.624 | 0.007798 | 0.004601 | 0.23 | 0 |  |
| CCNC(=O)C[C@@H]1N=C(c2ccc(Cl)cc2)c2cc(OC)ccc2-n2c(C)nnc21 [I-BET762] |  |  |  |  |  |  |  |  |  |  |  |  | %Growth ([6]; BDF1-hBD1-flag): 102% and 95% and 92%; %Growth ([6]; BDF1-hBD2-flag): 105% and 93% and 100%; %Growth ([6]; humanized BDF1-flag): 83%; %Growth ([1]; Fig 3E, 50 µM, WT BDF1-flag, Exp 1-3): 107% and 101% |
| CCNC(=O)C[C@@H]1N=C(c2ccc(Cl)cc2)c2cc(OC)ccc2-n2c(C)nnc21 [I-BET] |  |  |  |  |  |  |  |  |  |  |  |  | OD at 600 nm ([1]; WT BDF1 strain, Exp 1-3): 0.369 and 0.413 and 0.420; OD at 600 nm ([1]; bdf1-bd1Δ strain, Exp 1-3): 0.298 and 0.365 and 0.364; OD at 600 nm ([1]; bdf1-bd2Δ strain, Exp 1-3): 0.164 and 0.171 and 0.191 |
| COc1ccccc1S(=O)(=O)Nc1ccc2c(c1)CN(C)C(=O)N2 [PFI-1, reference compound] |  |  |  |  |  |  |  |  |  |  |  |  | pIC50 CgBD1 (CgBdf1 BD1 [2]): 4.63 and 4.61; pIC50 CgBD2 (CgBdf1 BD2 [3]): * 4 |
| COc1ccccc1S(=O)(=O)Nc1ccc2c(c1)CN(C)C(=O)N2 [PFI] |  |  |  |  |  |  |  |  |  |  |  |  | OD at 600 nm ([1]; WT BDF1 strain, Exp 1-3): 0.381 and 0.415 and 0.390; OD at 600 nm ([1]; bdf1-bd1Δ strain, Exp 1-3): 0.323 and 0.367 and 0.349; OD at 600 nm ([1]; bdf1-bd2Δ strain, Exp 1-3): 0.181 and 0.163 and 0.165 |
| I-BET151 [reference compound] |  |  |  |  |  |  |  |  |  |  |  |  | pIC50 CgBD1 (CgBdf1 BD1 [2]; listed as IBET-151): 5.54 and 5.64 and 5.77; pIC50 CgBD1 (CgBdf1 BD1 [2]; listed as i-BET151): 5.772 and 5.641; pIC50 CgBD2 (CgBdf1 BD2 [3]; Fig 1D/2A original data, single experiments Exp1-3, listed as IBET-151): 6.30 and 6.21 and 6.31; pIC50 CgBD2 (CgBdf1 BD2 [3]; Fig 1D/2A original data, single experiments Exp1-3, listed as i-BET151): 6.297 and 6.205 |
